Laboratory results as given in patent publication US8802162B2, “L-citrulline for treating endothelial dysfunction and erectile dysfunction” (Androsystems S.R.L., priority 2008, dated 2014).

Key:
[1] = Urinary excretion of nitrates, randomized prospective study in erectile dysfunction patients; type: in vivo; conditions: for Urinary excretion of nitrates, baseline: before administration; for Urinary excretion of nitrates, after administration: oral, L-citrulline 6 grams/day or L-arginine 3 grams/day, 7 days after beginning of administration
Experimental: (§1) The effectiveness of the administration of L-citrulline in the treatment of erectile dysfunction has been verified by conducting a randomized prospective study on 20 patients, during which L-citrulline was administered orally with a dosage of 6 grams/day, in two separate 3-gram doses, to patients affected by erectile dysfunction.
(§2) The effects of the administration were then tested at the biochemical level by studying the following parameters:
3. urinary excretion of nitrates;
(§3) The data related to the above cited biochemical parameters were acquired for patients subjected to the test 7 days after the beginning of the administration of the drug and are shown below in Table 1, Table 2, Table 3 and Table 4.

[2] = Urinary excretion of cGMP, randomized prospective study in erectile dysfunction patients; type: in vivo; conditions: for Urinary excretion of cGMP, baseline: before administration; for Urinary excretion of cGMP, after administration: oral, L-citrulline 6 grams/day or L-arginine 3 grams/day, 7 days after beginning of administration
Experimental: as §1, §2
4. urinary excretion of cGMP.
as §3

[3] = Blood L-arginine/ADMA ratio, randomized prospective study in erectile dysfunction patients; type: in vivo
Experimental: as §1, §2, §3

[4] = system: erectile dysfunction; test: Erectile function assessment card (IIF-5 questionnaire); type: in vivo, patients; conditions: oral 6 grams/day, in words
Experimental: as §1
(§4) Moreover, the effects at the clinical level were also tested by administering the “Erectile function assessment card” (IIF-5 questionnaire) to the patients and by measuring flow-mediated vasodilation of the cavernous arteries before and after therapy.

[5] = Plasma levels of L-arginine after oral administration, randomized prospective study in erectile dysfunction patients; type: in vivo; conditions: in words
Experimental: as §1, §2, §3

[6] = system: cavernous arteries; test: Flow-mediated vasodilation of the cavernous arteries before and after therapy; type: in vivo, patients; conditions: oral 6 grams/day, before vs after therapy, in words
Experimental: as §1, §4

N=C(N)NCCC[C@H](N)C(=O)O [L-arginine, reference compound]
Urinary excretion of nitrates, baseline [1]: 91 ± 10 nmol/mmol creatinine
Urinary excretion of nitrates, after administration [1]: 93 ± 12 nmol/mmol creatinine
Urinary excretion of cGMP, baseline [2]: 38 ± 3.1 nmol/mmol creatinine
Urinary excretion of cGMP, after administration [2]: 39 ± 4.5 nmol/mmol creatinine

NC(=O)NCCC[C@H](N)C(=O)O [L-citrulline]
L-arginine/ADMA ratio, baseline ([3]; baseline, before administration): 183 ± 8
L-arginine/ADMA ratio, after administration ([3]; oral, L-citrulline 6 grams/day or L-arginine 3 grams/day, 7 days after beginning of administration): 290 ± 15
Urinary excretion of nitrates, baseline [1]: 89 ± 9 nmol/mmol creatinine
Excretion of nitrates with respect to administration of L-arginine ([1]; oral administration, in words): higher excretion
Urinary excretion of nitrates, after administration [1]: 133 ± 16 nmol/mmol creatinine
Urinary excretion of cGMP, baseline [2]: 40 ± 2.8 nmol/mmol creatinine
Excretion of cGMP with respect to administration of L-arginine ([2]; oral administration, in words): higher excretion
Urinary excretion of cGMP, after administration [2]: 55 ± 3.8 nmol/mmol creatinine
IIF-5 questionnaire, components related to achieving and maintaining erection [4]: leads to a modification of the IIF-5 questionnaire
Plasma half-life of L-arginine with respect to administration of L-arginine [5]: statistically longer
Plasma levels of arginine with respect to administration of L-arginine [5]: statistically higher
Increase in flow-mediated vasodilation at the level of the cavernous arteries [6]: statistically higher increase
